Measured values published in PubChem BioAssay AID651574 (The Scripps Research Institute Molecular Screening Center, 2012).
Calls of active or inactive are those of the source. No rule for the calls is given here.

Test system: Core protein (Hepatitis C virus)
Assay: HCV infectivity inhibition in infected cells, late-stage follow-up, counter-screen for HCV core dimerization inhibitor project, cell-based, fluorescence qPCR, two timepoints (AID 651574)
Conditions: viral RNA qPCR

| Structure (SMILES) | IC50 (timepoint 1) [µM] | IC50 (timepoint 2) |
| --- | --- | --- |
| Cc1ccc(Cc2c(C)nc3nc(SCC(=O)NCCN4CCN(S(=O)(=O)c5ccccc5)CC4)nn3c2C)cc1 | 5.3 | 12.5 µM |
| Cc1ccc(Cc2c(C)nc3nc(SCC(=O)NCCN4CCCN(S(C)(=O)=O)CC4)nn3c2C)cc1 | 18.9 | 24.3 µM (inactive) |
| Cc1ccc(Cc2c(C)nc3nc(SCC(=O)NCCN4CCN(Cc5ccc(F)cc5)CC4)nn3c2C)cc1 | 0.099 | – |
| Cc1ccc(Cc2c(C)nc3nc(SCC(=O)NCCCN4CCCCCC4)nn3c2C)cc1 | 6.7 | 12 µM |
| Cc1ccc(Cc2c(C)nc3nc(SCC(=O)NCCN4CCCN(S(=O)(=O)c5ccc(C)cc5)CC4)nn3c2C)cc1 | 2.7 | 7.2 µM |
| Cc1ccc(Cc2c(CCc3ccccc3)nc3nc(SC(Cc4ccccc4)C(=O)NCCN4CCOCC4)nn3c2C)cc1 (configuration not stated) | 7.7 | – |
| Cc1ccc(Cc2c(C)nc3nc(SCC(=O)NCCN4CCN(CCc5ccccc5)CC4)nn3c2C)cc1 | 3.07 | – |
| Cc1ccc(Cc2c(C)nc3nc(SCC(=O)NCCN4CCCN(S(=O)(=O)c5ccccc5)CC4)nn3c2C)cc1 | 3.2 | 2.2 µM |
| Cc1ccc(Cc2c(C)nc3nc(SCC(=O)NCCN4CCCCCC4)nn3c2C)cc1 | 8.5 | 13.7 µM |
| Cc1ccc(Cc2c(C)nc3nc(SCC(=O)NCCN4CCNCC4)nn3c2C)cc1 | – | 1.8 µM |
| Cc1ccc(Cc2c(C)nc3nc(SCC(=O)NCCN4CCOCC4)nn3c2C)cc1 | 12 | – |
